According to US9248089B2, “Peptide-based compounds as inhibitors of neurotransmitter secretion” (GRF (WUHAN) BIOTECHNOLOGY INC., priority 2011, dated 2016):
Peptide text beside a SMILES is read from it.

System: HEK293 cells
Assay: HEK293 cell assay (evaluation of biological degradation, HPLC of supernatant)
Type: in vitro ADME, Human
Settings: for Degradation after incubation with HEK293 cells: 37° C., 1.0×10^6 HEK293 cells; for Degradation after incubation with HEK293 cells / Degradation pattern/profile compared with another compound: HPLC condition D; for Degradation pattern/profile compared with another compound: incubation with HEK293 cells
Method: The Human Embryonic Kidney 293 (HEK293) cells may be cultured in suspension. After the HEK293 cells are collected, the cells may be washed 3 times with PBS buffer before the assay.
The stock solution of peptide-based compounds may be made by dissolving the compound in PBS buffers or in DMSO. Other solutions or solvents may be used to dissolve the peptide-based compounds for this assay.
2. Add 10 μL of the stock solution of the peptide-based compound prepared above so that the final concentration of the peptide-based compound is around 1/10th of that of the stock.
3. Incubate the resulting mixture at 37° C. for 3, 5, 10, 20, or 30 min.
4. Remove the cells by centrifugation.
5. Collect an aliquot of the supernatant solution (20 μL) and loaded it onto a reverse-phase HPLC column (3.9×150 Nova-Pak C18, Waters, Mass., USA) on an HPLC system (125 solvent module, System Gold, Beckman, Calif., USA). Peptide peaks may be detected at the wavelength of 220 nm (Diode Array Detector module 168, Beckman, Calif., USA).

Detectable Compound 2 as degradation intermediate (30 min incubation with HEK293 cells) | Degradation after incubation with HEK293 cells (5 min incubation) | Degradation after incubation with HEK293 cells (10 min incubation) | Compound | Degradation after incubation with HEK293 cells (3 min incubation) | Degradation after incubation with HEK293 cells (30 min incubation) | Detectable Compound 2 as degradation intermediate (5 min incubation with HEK293 cells) | Degradation pattern/profile compared with another compound
No Compound 2 was detectable | – | – | COC(=O)CC[C@H](NC(C)=O)C(=O)N[C@@H](CCC(=O)OC)C(=O)N[C@@H](CCSC)C(=O)N[C@@H](CCC(N)=O)C(=O)N[C@@H](CCCNC(=N)N)C(=O)N[C@@H](CCCNC(=N)N)C(N)=O [Compound 1, Ac-Glu(OMe)-Glu(OMe)-Met-Gln-Arg-Arg-NH2] (Ac-E(OMe)E(OMe)MQRR-NH2) | degraded to Compound 2 and at least one new fragment | fully degraded to at least one new fragment | – | –
– | degraded to at least two fragments | completed degraded to the two fragments | COC(=O)CC[C@H](NC(C)=O)C(=O)N[C@@H](CCC(=O)OC)C(=O)N[C@@H](CCSC)C(=O)N[C@@H](CCC(N)=O)C(=O)N[C@@H](CCCNC(=NC(=O)OC(C)(C)C)NC(=O)OC(C)(C)C)C(=O)N[C@@H](CCCNC(=NC(=O)OC(C)(C)C)NC(=O)OC(C)(C)C)C(N)=O [Compound 3, Ac-Glu(OMe)-Glu(OMe)-Met-Gln-Arg(Boc)2-Arg(Boc)2-NH2] | – | – | did not produce detectable intermediacy of Compound 2 | degraded in the same pattern as Compound 2
– | – | degraded to at least two fragments | Ac-EEMQRR-NH2 [Compound 2, Ac-Glu-Glu-Met-Gln-Arg-Arg-NH2, reference compound] | – | – | – | did not give the same degradation pattern as Compound 1
